Measurements taken from patent publication US20030175979A1, “System and method for characterizing metabolites using hydrogen/deuterium exchange” (priority 2002, published 2003).
“Also recorded” adds a separate entry of the source.

Experiments:
dog liver hepatocytes = experiment: Incubation of [14C]PD 0200126 with dog hepatocytes, radiochromatographic metabolite profile; type: in vitro ADME; conditions: [14C]PD 0200126 incubated with dog hepatocytes for 180 minutes; flow-through radioactivity detector
Experimental: In Vitro Study. A proposed metabolite M2 (PD 0200126-glucuronide) was formed following incubation of [^14C]PD 0200126 with dog liver hepatocytes for 180 minutes.
Apparatus and Conditions. An Agilent 1100 HPLC system (Agilent Technologies, Wilmington, Del.), including pumps, autoinjector, and UV detector, was used to separate the metabolites. Separation of the metabolites was achieved using a Metasil AQ guard column (Metachem Technologies, Torrance, Calif.) and a 150 mm×4.6 mm MetaChem Polaris C-18 reversed-phase HPLC column (Metachem Technologies). […]
After passing through the UV detector (280 nm), the HPLC effluent was split so that 20%-30% of the flow was introduced into the mass spectrometer via an ESI source supplied with the mass spectrometer, while 70%-80% was diverted to the radioactivity detector (β-RAM, IN/US, Tampa, Fla.). The analog output from the UV detector, along with the MS signal, were recorded in real time by the data system provided with the mass spectrometer (Xcalibur V 1.2, ThermoFinnigan). […] The β-RAM data was integrated to obtain semi-quantitative information about the metabolites and the unchanged drug. The delay in response between the radioactivity detector and the MS was 0.2 min -0.4 min with the MS response being recorded first. […]

[1] = Metabolite profile in rabbit plasma after oral administration of PD 0200126 (LC-UV/MS); type: in vivo; conditions: 300 mg/kg oral PD 0200126, UV 280 nm and LC-MS
Experimental: In Vivo Studies. To obtain plasma samples, blood from rabbits was collected at various time points following a 300 mg/kg oral administration of PD 0200126. Plasma was precipitated by addition of 3 volumes of acetonitrile to 1 volume of plasma and then centrifuged. The resulting supernatant was decanted off, dried, and subsequently reconstituted in the mobile phase solvent (described below) prior to injection in the HPLC. A 100-μL aliquot was injected for each experiment (run).
Apparatus and Conditions. An Agilent 1100 HPLC system (Agilent Technologies, Wilmington, Del.), including pumps, autoinjector, and UV detector, was used to separate the metabolites. Separation of the metabolites was achieved using a Metasil AQ guard column (Metachem Technologies, Torrance, Calif.) and a 150 mm×4.6 mm MetaChem Polaris C-18 reversed-phase HPLC column (Metachem Technologies). The mobile phase comprised 20-mM ammonium acetate in water adjusted to pH 4 with acetic acid (Solvent A) and acetonitrile (Solvent B), and was maintained at a constant flow rate (1 mL/min) throughout each run. Gradient elution of the metabolites was achieved using programmed stepwise changes of solvent A/B ratios of 95/5, 50/50, 25/75, 5/95, and 95/5 at 0, 40, 50, 60, and 75 min, respectively.
After passing through the UV detector (280 nm), the HPLC effluent was split so that 20%-30% of the flow was introduced into the mass spectrometer via an ESI source supplied with the mass spectrometer, while 70%-80% was diverted to the radioactivity detector (β-RAM, IN/US, Tampa, Fla.). The analog output from the UV detector, along with the MS signal, were recorded in real time by the data system provided with the mass spectrometer (Xcalibur V 1.2, ThermoFinnigan). A separate software program (Win-Flow V 1.5, IN/US, Tampa, Fla.) was used to control the β-RAM and to collect the analog output from the β-RAM. The β-RAM data was integrated to obtain semi-quantitative information about the metabolites and the unchanged drug. The delay in response between the radioactivity detector and the MS was 0.2 min -0.4 min with the MS response being recorded first.
Trace amounts of PD 0200126 and M10 were also observed at m/z 425 and 409, respectively. Metabolites M1-M6 were characterized in a separate study involving rat and mouse hepatocytes.

| share of the total radioactivity associated with the component (dog liver hepatocytes) | abundance of drug/metabolite in plasma (UV component / extracted ion chromatogram) [1] | SMILES | abundance of drug/metabolite in plasma (UV component / extracted ion chromatogram) ([1]; 300 mg/kg) |
| --- | --- | --- | --- |
| minor amounts | prominent UV components | CC(C)[C@@H](NS(=O)(=O)c1ccc(-c2ccc(Br)cc2)cc1)C(=O)O [Metabolite M9, PD 0200126-carboxylic acid] | – |
| – | Trace amounts | CC(C)[C@@H](NS(=O)(=O)c1ccc(-c2ccc(Br)cc2)cc1)C(=O)NO [PD 0200126, 2-(4′-bromo-biphenyl-4-sulfonylamino)-N-hydroxy-3-methyl-butyramide] | – |
| – | – | CC(C)[C@@H](NS(=O)(=O)c1ccc(-c2ccc(Br)cc2)cc1)C(N)=O [Metabolite M10] | Trace amounts; also recorded: minor UV component |
| more than 90% | – | CC(C)[C@@H](NS(=O)(=O)c1ccc(-c2ccc(Br)cc2)cc1)C(=O)NOC1OC(C(=O)O)C(O)C(O)C1O (stereo partly drawn) [Metabolite M2, PD 0200126-glucuronide] | – |
| – | prominent UV components | NS(=O)(=O)c1ccc(-c2ccc(Br)cc2)cc1 [Metabolite M8, bromo-biphenylsulfonamide] | – |
